Assay results reported in ChEMBL document CHEMBL5291721, “A preclinical secondary pharmacology resource illuminates target-adverse drug reaction associations of marketed drugs” (Nat Commun, 2023).

What was measured:
[1] = molecular target: Sodium-dependent serotonin transporter (Homo sapiens, UniProt P31645)
[2] = molecular target: cGMP-inhibited 3',5'-cyclic phosphodiesterase 3A (Homo sapiens, UniProt Q14432); format: functional
D(3) dopamine receptor = D(3) dopamine receptor (Homo sapiens, UniProt P35462)
Adenosine receptor A3 = molecular target: T1, Adenosine receptor A3 (Homo sapiens, UniProt P0DMS8)
T1 sequence (P0DMS8 whole entry): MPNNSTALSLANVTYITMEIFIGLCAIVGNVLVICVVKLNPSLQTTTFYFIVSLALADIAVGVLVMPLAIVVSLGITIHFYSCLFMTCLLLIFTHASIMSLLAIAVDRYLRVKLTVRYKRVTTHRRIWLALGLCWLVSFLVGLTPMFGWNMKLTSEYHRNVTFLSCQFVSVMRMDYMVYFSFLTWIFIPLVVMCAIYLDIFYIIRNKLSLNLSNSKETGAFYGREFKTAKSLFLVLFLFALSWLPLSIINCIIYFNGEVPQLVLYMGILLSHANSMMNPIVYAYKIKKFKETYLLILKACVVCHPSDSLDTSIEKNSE

[3] = molecular target: Sodium-dependent noradrenaline transporter (Homo sapiens, UniProt P23975)
[4] = molecular target: 3',5'-cyclic-AMP phosphodiesterase 4D (Homo sapiens, UniProt Q08499); format: functional
[5] = molecular target: Beta-1 adrenergic receptor (Homo sapiens, UniProt P08588); format: functional
[6] = molecular target: T2, Muscarinic acetylcholine receptor M2 (Homo sapiens, UniProt P08172); format: functional, cell-based
T2 sequence (P08172 whole entry): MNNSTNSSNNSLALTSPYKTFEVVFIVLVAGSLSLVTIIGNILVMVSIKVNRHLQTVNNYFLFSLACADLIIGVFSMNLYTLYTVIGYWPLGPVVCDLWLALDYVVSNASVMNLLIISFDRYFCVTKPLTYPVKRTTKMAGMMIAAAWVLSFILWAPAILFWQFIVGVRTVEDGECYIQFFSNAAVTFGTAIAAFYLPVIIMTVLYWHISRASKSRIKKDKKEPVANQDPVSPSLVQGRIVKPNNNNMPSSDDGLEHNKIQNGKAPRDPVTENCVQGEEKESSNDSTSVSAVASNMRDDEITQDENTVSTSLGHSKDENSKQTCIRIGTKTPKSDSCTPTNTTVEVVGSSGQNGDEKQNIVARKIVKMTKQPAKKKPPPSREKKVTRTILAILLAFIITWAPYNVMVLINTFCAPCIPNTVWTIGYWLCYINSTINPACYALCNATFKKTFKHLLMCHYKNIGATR

[7] = molecular target: T3, 5-hydroxytryptamine receptor 1A (Homo sapiens, UniProt P08908); format: functional, cell-based
T3 sequence (P08908 whole entry): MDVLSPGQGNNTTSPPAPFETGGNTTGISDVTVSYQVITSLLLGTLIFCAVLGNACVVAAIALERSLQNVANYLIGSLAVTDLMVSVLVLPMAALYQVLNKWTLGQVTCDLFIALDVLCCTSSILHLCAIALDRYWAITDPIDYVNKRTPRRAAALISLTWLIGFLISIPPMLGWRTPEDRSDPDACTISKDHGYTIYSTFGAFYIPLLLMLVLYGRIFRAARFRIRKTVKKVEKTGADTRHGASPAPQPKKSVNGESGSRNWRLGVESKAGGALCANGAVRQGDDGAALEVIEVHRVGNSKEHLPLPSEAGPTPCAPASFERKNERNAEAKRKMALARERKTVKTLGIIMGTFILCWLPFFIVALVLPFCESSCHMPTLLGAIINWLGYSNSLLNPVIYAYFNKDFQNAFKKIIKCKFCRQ

[8] = molecular target: T4, Cholecystokinin receptor type A (Homo sapiens, UniProt P32238)
T4 sequence (P32238 whole entry): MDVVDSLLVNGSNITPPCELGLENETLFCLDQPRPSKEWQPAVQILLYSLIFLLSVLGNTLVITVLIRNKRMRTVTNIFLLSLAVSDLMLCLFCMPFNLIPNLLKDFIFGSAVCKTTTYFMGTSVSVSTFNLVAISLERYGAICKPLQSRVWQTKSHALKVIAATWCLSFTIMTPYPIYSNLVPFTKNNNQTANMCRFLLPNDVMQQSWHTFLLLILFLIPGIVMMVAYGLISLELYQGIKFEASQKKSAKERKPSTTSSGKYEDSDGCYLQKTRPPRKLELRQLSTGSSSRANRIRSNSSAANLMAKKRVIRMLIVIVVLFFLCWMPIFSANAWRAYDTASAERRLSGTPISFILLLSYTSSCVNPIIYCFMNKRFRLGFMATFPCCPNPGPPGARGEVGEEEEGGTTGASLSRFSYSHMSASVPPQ

[9] = molecular target: Growth hormone secretagogue receptor type 1 (Homo sapiens, UniProt Q92847)
Adenosine receptor A2a = Adenosine receptor A2a (Homo sapiens, UniProt P29274)
[10] = molecular target: Voltage-gated inwardly rectifying potassium channel KCNH2 (Homo sapiens, UniProt Q12809); format: functional; settings: read-out: AC50
Mu-type opioid receptor = Mu-type opioid receptor (Homo sapiens, UniProt P35372); assay: biochemical; format: functional
Endothelin-1 receptor = molecular target: T5, Endothelin-1 receptor (Homo sapiens, UniProt P25101)
T5 sequence (P25101 whole entry): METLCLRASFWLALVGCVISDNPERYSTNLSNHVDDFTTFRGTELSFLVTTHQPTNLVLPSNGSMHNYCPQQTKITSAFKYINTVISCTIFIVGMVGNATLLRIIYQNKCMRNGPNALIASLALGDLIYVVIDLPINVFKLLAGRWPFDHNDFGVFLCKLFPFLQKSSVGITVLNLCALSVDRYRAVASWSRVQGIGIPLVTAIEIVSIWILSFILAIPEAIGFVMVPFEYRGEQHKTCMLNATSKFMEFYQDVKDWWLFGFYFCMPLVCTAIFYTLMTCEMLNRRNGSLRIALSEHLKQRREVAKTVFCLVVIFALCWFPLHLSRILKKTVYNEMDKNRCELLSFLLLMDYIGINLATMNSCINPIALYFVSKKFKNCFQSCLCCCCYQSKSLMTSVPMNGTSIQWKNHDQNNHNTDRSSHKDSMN
Further: assay procedure not described here.

Chain of Sodium-dependent serotonin transporter (P31645 whole entry): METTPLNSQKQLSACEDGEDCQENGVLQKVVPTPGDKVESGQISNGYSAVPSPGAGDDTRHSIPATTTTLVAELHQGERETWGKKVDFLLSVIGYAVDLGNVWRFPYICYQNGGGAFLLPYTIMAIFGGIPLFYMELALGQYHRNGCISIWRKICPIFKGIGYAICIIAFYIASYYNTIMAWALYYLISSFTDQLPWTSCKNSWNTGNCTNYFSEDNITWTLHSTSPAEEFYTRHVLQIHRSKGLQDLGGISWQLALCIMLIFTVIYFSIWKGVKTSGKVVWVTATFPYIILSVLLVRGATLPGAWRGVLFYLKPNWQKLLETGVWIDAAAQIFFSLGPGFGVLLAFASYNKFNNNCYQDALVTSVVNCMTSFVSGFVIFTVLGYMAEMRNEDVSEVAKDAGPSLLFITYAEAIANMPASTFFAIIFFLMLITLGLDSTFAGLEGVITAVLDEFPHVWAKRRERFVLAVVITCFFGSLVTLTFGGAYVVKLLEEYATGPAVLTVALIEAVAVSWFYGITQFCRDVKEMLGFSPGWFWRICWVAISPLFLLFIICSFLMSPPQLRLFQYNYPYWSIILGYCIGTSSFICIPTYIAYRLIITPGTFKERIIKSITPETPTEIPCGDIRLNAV
Chain of Beta-1 adrenergic receptor (P08588 whole entry): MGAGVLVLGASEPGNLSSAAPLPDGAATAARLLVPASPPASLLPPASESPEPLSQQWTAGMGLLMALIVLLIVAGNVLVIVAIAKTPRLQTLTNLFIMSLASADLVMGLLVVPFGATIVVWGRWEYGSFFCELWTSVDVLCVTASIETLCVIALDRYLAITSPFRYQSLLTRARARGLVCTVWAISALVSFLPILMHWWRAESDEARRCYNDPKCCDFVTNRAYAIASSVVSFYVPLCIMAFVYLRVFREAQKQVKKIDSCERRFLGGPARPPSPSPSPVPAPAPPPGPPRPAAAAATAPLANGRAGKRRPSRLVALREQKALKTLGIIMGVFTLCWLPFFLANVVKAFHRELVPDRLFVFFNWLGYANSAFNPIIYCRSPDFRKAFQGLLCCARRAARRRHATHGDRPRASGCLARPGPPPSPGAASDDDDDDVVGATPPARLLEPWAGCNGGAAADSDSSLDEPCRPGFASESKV
Chain of Mu-type opioid receptor (P35372 whole entry): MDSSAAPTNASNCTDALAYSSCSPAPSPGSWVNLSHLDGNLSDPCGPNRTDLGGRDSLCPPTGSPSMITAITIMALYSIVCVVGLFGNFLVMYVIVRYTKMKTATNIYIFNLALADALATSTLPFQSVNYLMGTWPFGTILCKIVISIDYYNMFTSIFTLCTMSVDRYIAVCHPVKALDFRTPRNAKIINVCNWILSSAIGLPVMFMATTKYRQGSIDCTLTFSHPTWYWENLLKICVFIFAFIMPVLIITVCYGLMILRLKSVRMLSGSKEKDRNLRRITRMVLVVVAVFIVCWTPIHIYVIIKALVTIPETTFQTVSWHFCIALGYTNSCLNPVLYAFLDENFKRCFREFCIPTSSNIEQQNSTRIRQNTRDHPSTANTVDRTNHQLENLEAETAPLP
Chain of Adenosine receptor A2a (P29274 whole entry): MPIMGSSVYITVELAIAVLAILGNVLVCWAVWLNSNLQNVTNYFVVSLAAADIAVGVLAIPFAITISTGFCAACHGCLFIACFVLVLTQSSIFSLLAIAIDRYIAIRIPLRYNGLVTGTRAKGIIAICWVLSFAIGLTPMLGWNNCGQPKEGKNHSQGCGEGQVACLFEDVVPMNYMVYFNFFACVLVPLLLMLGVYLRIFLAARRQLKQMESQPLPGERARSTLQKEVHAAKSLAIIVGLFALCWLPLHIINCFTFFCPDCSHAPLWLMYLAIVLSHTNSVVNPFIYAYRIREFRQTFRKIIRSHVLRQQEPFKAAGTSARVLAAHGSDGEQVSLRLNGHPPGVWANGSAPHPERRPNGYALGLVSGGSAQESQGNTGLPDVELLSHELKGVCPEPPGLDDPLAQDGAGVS
Chain of D(3) dopamine receptor (P35462 whole entry): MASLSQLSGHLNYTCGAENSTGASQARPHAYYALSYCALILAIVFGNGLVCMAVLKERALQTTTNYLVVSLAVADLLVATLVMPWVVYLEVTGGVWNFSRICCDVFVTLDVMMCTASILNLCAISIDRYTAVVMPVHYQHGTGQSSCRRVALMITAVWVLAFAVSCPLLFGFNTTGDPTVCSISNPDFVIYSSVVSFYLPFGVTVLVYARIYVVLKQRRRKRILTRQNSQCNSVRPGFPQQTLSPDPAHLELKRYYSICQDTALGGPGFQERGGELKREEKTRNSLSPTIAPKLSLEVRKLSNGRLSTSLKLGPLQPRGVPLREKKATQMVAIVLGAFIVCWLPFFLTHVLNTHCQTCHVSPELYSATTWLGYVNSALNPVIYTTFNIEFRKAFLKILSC
Chain of cGMP-inhibited 3',5'-cyclic phosphodiesterase 3A (Q14432 whole entry): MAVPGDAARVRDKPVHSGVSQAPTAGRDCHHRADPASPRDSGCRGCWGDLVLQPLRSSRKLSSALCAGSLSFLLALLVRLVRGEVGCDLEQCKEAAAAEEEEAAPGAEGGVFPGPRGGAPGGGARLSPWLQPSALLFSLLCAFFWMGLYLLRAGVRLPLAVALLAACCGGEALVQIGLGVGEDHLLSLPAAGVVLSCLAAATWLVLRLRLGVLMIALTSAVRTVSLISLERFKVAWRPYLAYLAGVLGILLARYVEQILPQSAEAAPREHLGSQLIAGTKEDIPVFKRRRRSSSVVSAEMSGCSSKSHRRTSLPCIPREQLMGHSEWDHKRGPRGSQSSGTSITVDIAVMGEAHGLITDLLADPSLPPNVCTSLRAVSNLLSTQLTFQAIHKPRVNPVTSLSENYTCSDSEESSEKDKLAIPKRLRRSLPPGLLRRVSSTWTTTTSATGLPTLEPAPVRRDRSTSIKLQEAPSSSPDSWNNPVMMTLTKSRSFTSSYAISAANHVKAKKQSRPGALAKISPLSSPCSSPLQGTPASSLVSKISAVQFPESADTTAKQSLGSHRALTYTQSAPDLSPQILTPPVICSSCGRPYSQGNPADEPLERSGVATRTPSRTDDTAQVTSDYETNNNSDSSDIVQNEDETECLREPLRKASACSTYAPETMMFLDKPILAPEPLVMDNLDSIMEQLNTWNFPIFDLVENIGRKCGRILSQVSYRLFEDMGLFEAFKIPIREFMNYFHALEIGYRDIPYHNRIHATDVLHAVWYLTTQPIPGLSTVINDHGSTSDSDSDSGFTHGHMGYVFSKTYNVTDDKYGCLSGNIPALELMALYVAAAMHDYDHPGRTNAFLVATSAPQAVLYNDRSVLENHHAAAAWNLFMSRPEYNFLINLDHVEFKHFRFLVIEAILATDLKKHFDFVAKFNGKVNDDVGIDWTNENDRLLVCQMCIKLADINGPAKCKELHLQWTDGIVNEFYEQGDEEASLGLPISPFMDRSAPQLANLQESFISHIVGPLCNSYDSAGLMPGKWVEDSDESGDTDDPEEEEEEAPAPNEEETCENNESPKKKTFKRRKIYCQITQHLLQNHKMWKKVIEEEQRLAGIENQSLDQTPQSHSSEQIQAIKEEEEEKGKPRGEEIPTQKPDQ
Chain of Voltage-gated inwardly rectifying potassium channel KCNH2 (Q12809 whole entry): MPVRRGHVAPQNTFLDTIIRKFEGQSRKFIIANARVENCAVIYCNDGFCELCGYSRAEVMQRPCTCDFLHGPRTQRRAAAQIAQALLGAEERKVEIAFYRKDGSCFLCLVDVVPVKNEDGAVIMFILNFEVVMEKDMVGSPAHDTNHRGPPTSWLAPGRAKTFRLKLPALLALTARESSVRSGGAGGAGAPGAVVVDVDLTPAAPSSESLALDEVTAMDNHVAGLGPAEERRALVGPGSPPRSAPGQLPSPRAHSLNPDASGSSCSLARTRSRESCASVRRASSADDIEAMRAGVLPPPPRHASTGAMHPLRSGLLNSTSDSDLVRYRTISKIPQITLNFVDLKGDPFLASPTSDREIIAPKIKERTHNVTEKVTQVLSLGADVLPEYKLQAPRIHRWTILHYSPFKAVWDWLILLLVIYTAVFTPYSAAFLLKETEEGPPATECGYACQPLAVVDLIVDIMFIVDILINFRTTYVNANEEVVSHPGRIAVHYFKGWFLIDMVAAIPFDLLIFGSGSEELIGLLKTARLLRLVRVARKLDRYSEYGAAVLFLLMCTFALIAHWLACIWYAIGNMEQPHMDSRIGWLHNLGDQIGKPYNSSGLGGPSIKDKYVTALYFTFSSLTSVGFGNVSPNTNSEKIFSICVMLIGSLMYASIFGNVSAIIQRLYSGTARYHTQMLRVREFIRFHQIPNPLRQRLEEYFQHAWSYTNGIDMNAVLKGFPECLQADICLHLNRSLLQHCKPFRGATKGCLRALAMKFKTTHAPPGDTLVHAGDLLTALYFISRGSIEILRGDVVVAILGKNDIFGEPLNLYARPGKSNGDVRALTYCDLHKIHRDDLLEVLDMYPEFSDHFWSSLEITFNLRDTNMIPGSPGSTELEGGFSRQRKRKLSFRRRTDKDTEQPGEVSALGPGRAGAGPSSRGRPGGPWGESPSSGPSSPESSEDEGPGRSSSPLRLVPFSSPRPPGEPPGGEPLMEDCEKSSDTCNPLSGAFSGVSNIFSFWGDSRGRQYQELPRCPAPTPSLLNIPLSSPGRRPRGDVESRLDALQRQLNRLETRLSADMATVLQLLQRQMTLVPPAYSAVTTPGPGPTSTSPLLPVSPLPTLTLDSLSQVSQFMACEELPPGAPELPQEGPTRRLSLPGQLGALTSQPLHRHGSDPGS
Chain of Growth hormone secretagogue receptor type 1 (Q92847 whole entry): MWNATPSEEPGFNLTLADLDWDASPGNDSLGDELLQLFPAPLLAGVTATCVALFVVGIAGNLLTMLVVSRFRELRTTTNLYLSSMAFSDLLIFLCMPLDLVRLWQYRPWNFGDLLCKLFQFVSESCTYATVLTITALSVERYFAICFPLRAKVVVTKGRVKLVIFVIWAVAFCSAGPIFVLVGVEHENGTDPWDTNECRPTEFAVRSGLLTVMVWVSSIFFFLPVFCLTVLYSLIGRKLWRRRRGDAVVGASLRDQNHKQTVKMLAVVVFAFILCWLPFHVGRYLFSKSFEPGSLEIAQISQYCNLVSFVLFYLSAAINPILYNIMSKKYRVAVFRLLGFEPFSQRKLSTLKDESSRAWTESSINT

SMILES | AC50 [1] [µM] | AC50 [2] [µM] | AC50 (D(3) dopamine receptor) [µM] | AC50 (Adenosine receptor A3) [µM] | AC50 [3] [µM] | AC50 [4] [µM] | AC50 [5] [µM] | AC50 [6] [µM] | AC50 [7] [µM] | AC50 [8] [µM] | AC50 [9] [µM] | AC50 (Adenosine receptor A2a) [µM] | AC50 [10] [µM] | AC50 (Mu-type opioid receptor) [µM] | AC50 (Endothelin-1 receptor) [µM]
C[C@@H]1C[C@H]2[C@@H]3C[C@H](F)C4=CC(=O)C=C[C@]4(C)[C@@]3(F)[C@@H](O)C[C@]2(C)[C@H]1C(=O)CO [DIFLUCORTOLONE] | > 30 | > 30 | > 30 | > 30 | > 30 | > 30 |  |  |  |  |  |  |  |  | 
Clc1ccc2c(c1)C(c1ccccc1)=NCc1nncn1-2 [ESTAZOLAM] | > 30 | > 30 | > 30 | > 30 | > 30 | 10 | > 10 | > 10 | > 10 | > 30 | > 30 | > 30 | > 30 |  | 
Nc1nc2c(c(=O)[nH]1)N(C=O)C(CNc1ccc(C(=O)N[C@@H](CCC(=O)O)C(=O)O)cc1)CN2 (some centres undefined) [LEUCOVORIN] |  | > 30 | > 30 | > 30 | > 30 | > 30 | > 30 | > 30 | > 30 | > 30 | > 30 | > 30 | > 30 | > 30 | > 30
CC#CCn1c(N2CCC[C@@H](N)C2)nc2c1c(=O)n(Cc1nc(C)c3ccccc3n1)c(=O)n2C [LINAGLIPTIN] | > 30 | > 30 | > 30 | 26.2 | > 30 | > 10 | > 10 |  |  | > 30 | 5.2 | > 30 |  |  | 
CCCNC(C)C(=O)Nc1ccccc1C (centres undefined) [PRILOCAINE] |  | > 30 | > 30 | > 30 | > 30 | > 30 | > 30 | > 10 | > 30 | > 30 | > 30 | > 30 | > 30 | > 30 | > 30
[H]/N=C(/N)N[C@H]1[C@H](O)[C@@H](O)[C@H](O[C@@H]2O[C@@H](C)[C@](O)(C=O)[C@H]2O[C@@H]2O[C@@H](CO)[C@H](O)[C@@H](O)[C@@H]2NC)[C@@H](N/C(N)=N\[H])[C@@H]1O [STREPTOMYCIN] |  | > 30 | > 30 | > 30 | > 30 | > 30 | > 30 | > 30 | > 30 | > 30 | > 30 | > 30 | > 30 | > 30 | > 30
CN1c2ccccc2C(NCCCCCCC(=O)O)c2ccc(Cl)cc2S1(=O)=O (centres undefined) [TIANEPTINE] |  | > 30 | 20 | > 30 | > 30 | > 30 | > 30 | > 30 | > 30 | > 30 | > 30 | > 30 |  | 2.6 | > 30
